Calls of active or inactive are those of the source. The rule behind the calls is not given here.

Broadly, the EC50 is the midpoint of the concentration-response curve. The term CC50 denotes the concentration that lowers cell viability or growth by half. What is called IC50 is the concentration that inhibits the measured activity by half.

The test system of one series is Coxsackievirus B4. Nature of the series: Antiviral activity against Coxsackievirus B4 infected in african green monkey Vero cells assessed as inhibition of virus-induced cytopathicity. The conditions noted are these: for EC50: Enterovirus B. It is filed as functional, organism-based.
Series [1] concerns Human immunodeficiency virus 1. Nature of the series: Antiviral activity against HIV1 3B infected in human CEM cells assessed as inhibition of virus-induced syncytium formation by microscopy. The conditions noted are these: Human immunodeficiency virus 1, 3B, CCRF-CEM.
In series [2] the test system is Human immunodeficiency virus 2. The experiment in a line: Antiviral activity against HIV2 ROD infected in human CEM cells assessed as inhibition of virus-induced syncytium formation by microscopy. The conditions noted are these: Human immunodeficiency virus 2, ISOLATE ROD, CCRF-CEM.
Series [3] is described as follows: Cytotoxicity against human CEM cells infected with HIV1. It is filed as cell-based, CCRF-CEM. Conditions: CEM cells infected with HIV-1.
Series [4] has as its system Felid alphaherpesvirus 1. Nature of the series: Antiviral activity against Feline herpesvirus 1 infected in cat CRFK cells assessed as inhibition of virus induced cytopathicity. The conditions noted are these: Felid alphaherpesvirus 1, CRFK. (In general: Cytopathic effects are the visible damage that an infection or toxin causes in cultured cells.)
A short description of series [5]: Cytotoxicity against cat CRFK cells. It is filed as cell-based, Felis catus.
Series [6] relates to Influenza A virus. The experiment in a line: Antiviral activity against influenza A virus H1N1 infected in MDCK cells assessed as inhibition of virus-induced cytopathic effect.
Another series deals with MDCK. The experiment in a line: Cytotoxicity against MDCK cells. Conditions: Canis lupus familiaris.
Series [7] can be described thus: Cytotoxicity against human CEM cells infected with HIV2. In kind it is cell-based, CCRF-CEM.
The next series concerns L1210. Nature of the series: Cytostatic activity against mouse L1210 cells after 48 hrs by Coulter counting. Conditions: L1210, 48 h.
The next series relates to CCRF-CEM. The experiment in a line: Cytostatic activity against human CEM cells after 72 hrs by Coulter counting.
In another series the test system is HeLa. Nature of the series: Cytostatic activity against human HeLa cells after 72 hrs by Coulter counting.
Series [8] can be described thus: Inhibition of human PI4K3alpha expressed in Escherichia coli BL21 after 60 mins by ADP-GloTM Kinase Assay. In general terms: In ADP-Glo the light output rises with the ADP produced.
A short description of series [9]: Inhibition of human PI4K3beta expressed in Escherichia coli BL21 after 60 mins by ADP-GloTM Kinase Assay.
Series [10] in a line: Cytotoxicity against african green monkey Vero cells. It is filed as cell-based. Conditions: chlorocebus sabaeus.
Series [11] has as its system Felid alphaherpesvirus 1. Nature of the series: Antiviral activity against Feline herpesvirus 1 infected in cat CRFK cells assessed as inhibition of virus induced cytopathicity at 100 uM. It is filed as functional, organism-based.
Series [12] deals with Influenza A virus. Nature of the series: Antiviral activity against influenza A virus H1N1 infected in MDCK cells assessed as inhibition of virus-induced cytopathic effect at 100 uM. In kind it is functional, organism-based.
Series [13] has as its system Human immunodeficiency virus 2. The experiment in a line: Antiviral activity against HIV2 ROD infected in human CEM cells assessed as inhibition of virus-induced syncytium formation at 100 uM by microscopy. It is filed as functional, organism-based. The conditions noted are these: ISOLATE ROD, CCRF-CEM.
Series [14] has as its system Human immunodeficiency virus 1. The experiment in a line: Antiviral activity against HIV1 3B infected in human CEM cells assessed as inhibition of virus-induced syncytium formation at 100 uM by microscopy. In kind it is functional, organism-based. Conditions: CCRF-CEM.

Consider `Nc1ncnc2c1ncn2[C@@H]1C[C@@]2(CO)CC[C@@H]1C2`, for which the inhibition result in the series with Coxsackievirus B4 was “inactive”. In addition, the concentration for a half-maximal effect (EC50) is 100 µM in series [1]; 231 µM in series [2]; 58 µM in the series on Felid alphaherpesvirus 1 [4]; 179 µM with Influenza A virus [6]; over 386 µg/mL in the series on MDCK. Also, the CC50 in series [3], in series [5] and in [7] was over 386 µM each time. Besides, the 50% inhibitory concentration (IC50) in the series with L1210 was 408 µM; in the series on CCRF-CEM, over 386 µM; with HeLa, 609 µM; in [8], over 100 µM; in series [9], over 100 µM.
For the compound `OC[C@]12CC[C@H](C1)[C@H](n1cnc3c(Cl)ncnc31)C2` (relative stereo), in the series with Coxsackievirus B4, the EC50 was found to be 25 µM. Also, the CC50 in series [10] was over 359 µM.
Turning to `Nc1nc(Cl)c2ncn([C@@H]3C[C@@]4(CO)CC[C@@H]3C4)c2n1` (relative stereo), the EC50 in the series on Coxsackievirus B4 stood at 31 µM. Further, the CC50 in series [10] is over 359 µM. The IC50 in the series with L1210 is 139 µM; with CCRF-CEM, 88 µM; in the series on HeLa, over 340 µM.
On to `COC(=O)[C@H](C)NP(=O)(OC[C@]12CC[C@H](C1)[C@H](n1cnc3c(NC4CC4)ncnc31)C2)Oc1ccccc1` (relative stereo), for which the IC50 with L1210 stood at 129 µM; with CCRF-CEM, 78 µM; with HeLa, 136 µM.
In the case of `COC(=O)[C@H](C)NP(=O)(OC[C@]12CC[C@H](C1)[C@H](n1cnc3c(N)ncnc31)C2)Oc1ccccc1` (relative stereo), the inhibition result (in the series on Felid alphaherpesvirus 1 [11]; with Influenza A virus [12]; in series [13]; in [14]) was “inactive” throughout. Besides, the results for the IC50 with L1210, with CCRF-CEM and in the series with HeLa were 160 µM, at least 200 µM and over 200 µM, respectively.
Regarding `Nc1nc(N)c2ncn([C@@H]3C[C@@]4(CO)CC[C@@H]3C4)c2n1` (relative stereo), the 50% inhibitory concentration (IC50) came out at 179 µM in the series with L1210, 174 µM with CCRF-CEM and 190 µM in the series on HeLa.
On to `Nc1nc(NC2CC2)c2ncn([C@@H]3C[C@@]4(CO)CC[C@@H]3C4)c2n1` (relative stereo), for which the values for the IC50 in the series on L1210, in the series with CCRF-CEM and with HeLa were 146 µM, 124 µM and 101 µM, respectively.
On to `CN(C)c1ncnc2c1ncn2[C@@H]1C[C@@]2(CO)CC[C@@H]1C2` (relative stereo), for which the inhibition result with Coxsackievirus B4 was “inactive”.
With `OC[C@]12CC[C@H](C1)[C@H](n1cnc3c(=S)[nH]cnc31)C2` (relative stereo), in the series on Coxsackievirus B4, the inhibition entry is “inactive”.
Take `OC[C@]12CC[C@H](C1)[C@H](n1cnc3c(NC4CC4)ncnc31)C2` (relative stereo): the inhibition result in the series with Coxsackievirus B4 is “inactive”.
`O=c1[nH]cc(F)c(=O)[nH]1` [FLUOROURACIL] yielded an IC50 in the series with HeLa of 2.6 µM.

The values above are taken from ChEMBL document CHEMBL3351513, “Norbornane-based nucleoside and nucleotide analogues locked in North conformation” (Bioorg Med Chem, 2015).
